In article PMC8316002, “Inhibition of Escherichia coli Lipoprotein Diacylglyceryl Transferase Is Insensitive to Resistance Caused by Deletion of Braun’s Lipoprotein” (Journal of Bacteriology, 2021):
Converted amounts (≈) assume the structure as drawn. Like-named read-outs stand apart in the source and are kept apart here. Where a SMILES comes first, the peptide text is derived from it. Bridges are numbered along the chain shown (N, C = ends). [ ]: non-standard residue; d: D form. Bip = N[C@@H](Cc1ccc(-c2ccccc2)cc1)C(=O)O; NMeF = CN[C@@H](Cc1ccccc1)C(=O)O

What was measured:
in vitro = format: cell-based; conditions: human, representative of three independent replicates, read-out: EC50, mammalian cytotoxicity
From the text: TABLE 2 Growth inhibition of a panel of bacterial strains and eukaryotic cells by G9066, G2824, globomycin, and vancomycin | column: MIC or EC50 (μM)^a / G9066; MIC or EC50 (μM)^a / G2824; MIC or EC50 (μM)^a / Globomycin; MIC or EC50 (μM)^a / Vancomycin

S. aureus USA300 = assay: microbe, parasite or virus in culture; format: cell-based
Experimental: (§1) Unless stated otherwise, E. coli cells were grown in Luria-Bertani (LB) medium (0.5% yeast extract, 1% tryptone, 0.5% NaCl) at 37°C. Where indicated, kanamycin (Kan) was added to culture media at a 50-μg/ml final concentration. MIC assays were performed based on Clinical and Laboratory Standards Institute (CLSI) guidelines. For in vitro growth curves, overnight cultures of WT CFT073, CFT073 Δlgt, and CFT073 Δlgt complemented with lgt from E. coli (lgt^Ec) or P. aeruginosa (lgt^Pa) were grown to mid-exponential phase (optical density at 600 nm [OD600] of 0.6) and then diluted to an OD600 of 0.1 to initiate growth curves. At various times, culture aliquots were diluted and plated in dilutions on LB+Kan agar, and CFU were enumerated in duplicates. Growth of MG1655 inducible deletion strains was measured by culturing in the presence of 2-fold dilutions of arabinose (starting arabinose concentrations for CFT073 and MG1655 inducible deletion strains were 4% and 0.8%, respectively). While […] was sufficient for WT growth of MG1655 Δlgt, 4% arabinose was used for CFT073 Δlgt based on comparing its growth to that of WT CFT073 as measured by CFU. OD600 growth measurements were performed using an EnVision 2101 multilabel reader plate reader (PerkinElmer) linked with Echo liquid handler (Labcyte). For time-kill experiments, bacteria were harvested in mid-exponential phase and treated with 12.5 μM G2824, 3.2 μM globomycin, and 1.6 μM vancomycin. CFU were enumerated at various times posttreatment. Bacterial culture medium containing 2% arabinose was used to induce lpp or lppΔK expression from pBad24 plasmids. Bacterial viability at different time points during the treatment was measured by enumerating CFU. Serum killing assays were carried out as previously described ([17]).

A. baumannii 19606 = assay: microbe, parasite or virus in culture; format: cell-based; conditions: average of two independent experiments in duplicates
Experimental: as §1

P. aeruginosa PA14 = assay: microbe, parasite or virus in culture; format: cell-based; conditions: average of two independent experiments in duplicates
Experimental: as §1

[1] = tested on: A. baumannii 19606 + EDTA; assay: microbe, parasite or virus in culture; format: cell-based; conditions: average of two independent experiments in duplicates
Experimental: as §1

PA14 + EDTA = assay: microbe, parasite or virus in culture; format: cell-based, P. aeruginosa; conditions: average of two independent experiments in duplicates
Experimental: as §1

PA14 imp4213 = assay: microbe, parasite or virus in culture; format: cell-based, P. aeruginosa; conditions: average of two independent experiments in duplicates
Experimental: Bacterial strains and plasmids used in this study are listed in Table S1 in the supplemental material. E. coli strain CFT073 (ATCC 700928) ([62]) and MG1655 (ATCC 700926) were purchased from ATCC. Gene disruption in CFT073 was performed as previously described ([17], [63]). CFT073 Δlgt and MG1655 ΔlspA were generated using λ Red recombination ([17], [63]). Plasmids pKD46 for the λ Red recombinase ([17], [63]), pKD4 or pSim18 for the integration construction ([17], [63]), and pCP20 ([64]) for the FLP recombinase were used in this study. The 3′ primers (Table S2) used to generate the integration construct from pKD4 contain a juxtaposed ribosome binding site downstream of the kanamycin (Kan) cassette to allow for the creation of nonpolar gene deletions within operons ([63]), which is critical when generating the lgt inducible deletion strain given that the ribosomal binding site of the thyA gene downstream of lgt is within the lgt coding region. The inducible deletion strains (MG1655 Δlgt and MG1655 ΔlolCDE) in either the WT and/or Δlpp backgrounds were generated using similar methods as previously described ([17], [65]). To delete lpp in the lgt, lspA, and lolCDE inducible deletion strains, the Kan cassette was removed by transforming the FLP recombinase-expressing pCP20 plasmid followed by deletion of the lpp gene using λ Red recombinase as discussed above. Similar protocols were used to introduce the imp4213 mutant allele. The PA14 imp4213 strain was generated based on published protocols ([66][–][68]). Briefly, the lptD imp4213 mutant allele was generated by PCR amplifying PA14 genomic DNA using primer pairs PA14imp4213_up-F/PA14imp4213_up-R (upstream region) and PA14imp4213_dn-F/PA14imp4213_dn-R (downstream region) to create lptD missing amino acids 425 to 447. PCR products were combined with the PCR-amplified vector pEX18gm with primers pLMG18_GA-F/pLMG18_GA-R and assembled using Gibson assembly (NEB). The resultant suicide vector pEX18gm was confirmed by sequence analysis (ELIM Biopharm). […]
Unless stated otherwise, E. coli cells were grown in Luria-Bertani (LB) medium (0.5% yeast extract, 1% tryptone, 0.5% NaCl) at 37°C. […] Growth of MG1655 inducible deletion strains was measured by culturing in the presence of 2-fold dilutions of arabinose (starting arabinose concentrations for CFT073 and MG1655 inducible deletion strains were 4% and 0.8%, respectively). While 2% arabinose was sufficient for WT growth of MG1655 Δlgt, 4% arabinose was used for CFT073 Δlgt based on comparing its growth to that of WT CFT073 as measured by CFU. OD600 growth measurements were performed using an EnVision 2101 multilabel reader plate reader (PerkinElmer) linked with Echo liquid handler (Labcyte). […]

[2] = S. aureus USA300, average of two independent experiments in duplicates

| Structure (SMILES) | EC50 (in vitro; 293T) [µM] | EC50 (in vitro; Hela) [µM] | EC50 (in vitro; HepG2) [µM] | MIC (S. aureus USA300; [2]) [µM] | MIC (A. baumannii 19606) [µM] | MIC (P. aeruginosa PA14) [µM] | MIC [1] [µM] | MIC (PA14 + EDTA) [µM] | MIC (PA14 imp4213) [µM] | MIC (S. aureus USA300; Staphylococcus aureus, USA300) [µM] | MIC (A. baumannii 19606; Acinetobacter baumannii) [µM] | MIC (P. aeruginosa PA14; Pseudomonas aeruginosa) [µM] | MIC ([1]; Acinetobacter baumannii) [µM] | MIC (PA14 + EDTA; Pseudomonas aeruginosa) [µM] | MIC (PA14 imp4213; Pseudomonas aeruginosa) [µM] |
| --- | --- | --- | --- | --- | --- | --- | --- | --- | --- | --- | --- | --- | --- | --- | --- |
| CN1C(=O)[C@H](Cc2ccc(-c3ccccc3)cc2)NC(=O)CNC(=O)[C@H](CCCNC(=N)N)NC(=O)[C@@H](Cc2ccccc2)NC(=O)CSC[C@@H](C(=O)NCC(N)=O)NC(=O)[C@H](CCCNC(=N)N)NC(=O)[C@H](CO)NC(=O)[C@H](Cc2ccc(-c3ccccc3)cc2)NC(=O)[C@@H]1Cc1ccccc1 [G9066] ({CH2CO}-[dF]RG[Bip][NMeF][Bip]SRCG-NH2; thioether N-9) | > 100 | > 100 | > 100 | 6.3 (≈ 9 µg/mL) | 37.5 (≈ 53.6 µg/mL) | >100 | 3.1 (≈ 4.43 µg/mL) | 6.3 (≈ 9 µg/mL) | 6.3 |  |  |  |  |  |  |
| CN1C(=O)[C@H](Cc2ccc(-c3ccccc3)cc2)NC(=O)CNC(=O)[C@H](CC(=O)O)NC(=O)[C@@H](Cc2ccccc2)NC(=O)CSC[C@@H](C(=O)NCC(=O)N[C@@H](CCCCN)C(=O)N[C@@H](CCCCN)C(N)=O)NC(=O)[C@H](CCCNC(=N)N)NC(=O)[C@H](CO)NC(=O)[C@H](Cc2ccc(-c3ccccc3)cc2)NC(=O)[C@@H]1Cc1ccccc1 [G2824] ({CH2CO}-[dF]DG[Bip][NMeF][Bip]SRCGKK-NH2; thioether N-9) | > 100 | > 100 | > 100 | >100 | 37.5 (≈ 61.6 µg/mL) | >100 | 6.3 (≈ 10.4 µg/mL) | 6.3 (≈ 10.4 µg/mL) | 6.3 |  |  |  |  |  |  |
| CN[C@H](CC(C)C)C(=O)N[C@H]1C(=O)N[C@@H](CC(N)=O)C(=O)N[C@H]2C(=O)N[C@H]3C(=O)N[C@H](C(=O)N[C@H](C(=O)O)c4cc(O)cc(O)c4-c4cc3ccc4O)[C@H](O)c3ccc(c(Cl)c3)Oc3cc2cc(c3O[C@@H]2O[C@H](CO)[C@@H](O)[C@H](O)[C@H]2O[C@H]2C[C@](C)(N)[C@H](O)[C@H](C)O2)Oc2ccc(cc2Cl)[C@H]1O [Vancomycin] | > 100 | > 100 | > 100 |  |  |  |  |  |  | 0.4 (≈ 0.58 µg/mL) | > 100 | > 100 | 0.2 (≈ 0.29 µg/mL) | 6.3 (≈ 9.13 µg/mL) | 12.5 |
| CCCCCC[C@H]1OC(=O)CNC(=O)[C@H]([C@H](C)O)NC(=O)[C@H](CO)NC(=O)[C@H]([C@H](C)CC)NC(=O)[C@H](CC(C)C)N(C)C(=O)[C@@H]1C [Globomycin] | > 100 | > 100 | > 100 | >100 | 25 (≈ 16.4 µg/mL) | >100 | 0.6 (≈ 0.394 µg/mL) | 50 (≈ 32.8 µg/mL) | 50 |  |  |  |  |  |  |
